For 19 compounds, IC50 results are on record in US10323023B2, “Rho-associated protein kinase inhibitor, pharmaceutical composition comprising the same, as well as preparation method and use thereof” (Beijing Tide Pharmaceutical Co., Ltd., priority 2017, dated 2019).

In this experiment the target is ROCK2 (Homo sapiens (Human), UniProt O75116). The experiment in a line: ROCK2 kinase IC50 by HTRF KinEASE-STK S2 kit. It counts as biochemical. Conditions: 2 hours at room temperature, ROCK2 (01-119) from Carna Biosciences. The procedure:
The kinase IC50 was determined by a commercialized CISBIO kinase detection kit, HTRF KinEASE-STK S2 kit (62ST2PEC). ROCK2 (01-119) employed in the reaction was purchased from Carna Biosciences.
Before the assay, the following working solutions as needed were formulated with corresponding reagents according to the instruction of the kinase detection kit: 1×kinase buffer, 5×STK-S2 substrate working solution (1.5 μM) and 5×ATP working solution (1.5 μM), 5×ROCK2 kinase working solution, 4×Streptavidin-XL665 working solution, and 4×STK-Ab-Cryptate 2 detection solution. Then the assay was performed according to the following procedure.
A solution of a compound at a concentration of 10000 nM was prepared with the 1×kinase buffer containing 2.5% DMSO. Gradient dilution of the solution of the compound was performed with the kinase buffer containing DMSO, so as to obtain solutions of a test compound at 9 different concentrations. In addition to wells of test compounds, a positive well (containing all the reagents except the compound) and a negative well (containing all the reagents except the test compound and kinase) were set. Except for the control wells (positive and negative wells), a solution of a test compound (4 μL) was added to each of the reaction wells, and a solution of 2.5% DMSO was added to the control wells. Then the substrate (2 μM, i.e., 2 μL 5×STK-S2 substrate working solution) was added to each of the reaction wells. The 5×ROCK2 kinase working solution (2 μL, containing 1.4 ng ROCK2 kinase) was added to each of the reaction wells except for the negative well, the volume of which was made up with the 1×kinase buffer (2 μL). The 5×ATP working solution (2 μL) was added to each of the reaction wells, and the mixtures were incubated at room temperature for 2 hours. After the kinase reaction was complete, the 4×Streptavidin-XL665 working solution was added to each of the reaction wells, the solutions were mixed, followed by immediate addition of the 4×STK-Ab-Cryptate 2 detection solution (5 μL), and the mixtures were incubated at room temperature for 1 hour. The fluorescence signal was read on ENVISION (Perkinelmer) (excitation wavelength: 320 nm, and emission wavelength: 665 nm and 615 nm). The inhibitory rate in each well was calculated based on the fluorescence intensity value: ER (Emission Ratio)=(fluorescence intensity at 665 nm/fluorescence intensity at 615 nm); inhibitory rate=(ERpositive−ERtest compound)/(ERpositive−ERnegative)*100%. Curves were plotted and fitted to obtain the median inhibitory concentration (IC50) of each test compound with the PRISM 5.0 software.

Chain of ROCK2 (O75116 1-553 limits assumed): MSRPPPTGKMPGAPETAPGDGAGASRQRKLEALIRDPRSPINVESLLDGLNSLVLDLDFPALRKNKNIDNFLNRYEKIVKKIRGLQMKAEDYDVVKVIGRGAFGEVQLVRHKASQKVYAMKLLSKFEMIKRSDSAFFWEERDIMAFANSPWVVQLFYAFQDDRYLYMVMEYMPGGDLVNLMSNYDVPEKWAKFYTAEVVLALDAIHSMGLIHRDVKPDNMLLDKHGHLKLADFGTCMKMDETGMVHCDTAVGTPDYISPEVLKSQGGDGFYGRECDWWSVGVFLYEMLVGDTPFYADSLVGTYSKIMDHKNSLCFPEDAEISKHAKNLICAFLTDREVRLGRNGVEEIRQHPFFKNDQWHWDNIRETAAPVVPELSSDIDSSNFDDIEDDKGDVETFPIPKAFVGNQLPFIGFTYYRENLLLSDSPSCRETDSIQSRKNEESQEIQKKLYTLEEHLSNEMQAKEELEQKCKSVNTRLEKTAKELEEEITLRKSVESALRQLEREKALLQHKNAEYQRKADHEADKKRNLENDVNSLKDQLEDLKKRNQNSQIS

As to `O=C(Nc1ccnnc1)c1cc2ccc(-c3nccc(Nc4ccc5[nH]ncc5c4)n3)cc2s1` [TDI01116, 6-(4-((1H-indazol-5-yl)amino)pyrimidin-2-yl)-N-(pyridazin-4-yl)benzo[b]thiophene-2-carboxamide], inhibition was half-maximal at 236 nM (IC50).

As for `O=C(Nc1ccnnc1)c1cc2ccc(-c3nccc(Nc4ccc5[nH]ncc5c4)n3)cc2[nH]1` [TDI01152, 6-(4-((1H-indazol-5-yl)amino)pyrimidin-2-yl)-N-(pyridazin-4-yl)-1H-indole-2-carboxamide], the IC50 (usually the midpoint of a concentration-inhibition curve) amounted to 88 nM.

Turning to `O=C(Nc1ccnnc1)c1cc2ccc(-c3nc(Nc4ccc5[nH]ncc5c4)cc4nccn34)cc2[nH]1` [TDI01164, 6-(7-((1H-indazol-5-yl)amino)imidazo[1,2-c]pyrimidin-5-yl)-N-(pyridazin-4-yl)-1H-indole-2-carboxamide], the IC50 was determined as 438 nM.

Consider `O=C(Nc1ccnnc1)c1cc2ccc(-c3ncnc(Nc4ccc5[nH]ncc5c4)n3)cc2[nH]1` [TDI01167, 6-(4-((1H-indazol-5-yl)amino)-1,3,5-triazin-2-yl)-N-(pyridazin-4-yl)-1H-indole-2-carboxamide], for which the IC50 is 223 nM.

Consider `O=C(Nc1ccnnc1)c1cc2ccc(-c3nc(Nc4ccc5[nH]ncc5c4)c4sccc4n3)cc2[nH]1` [TDI01175, 6-(4-((1H-indazol-5-yl)amino)thieno[3,2-d]pyrimidin-2-yl)-N-(pyridazin-4-yl)-1H-indole-2-carboxamide], for which the IC50 was 197 nM. The IC50 values of the last two compounds are within 1.5-fold of each other.

As for `O=C(NCc1ccnnc1)c1cc2ccc(-c3nccc(Nc4ccc5[nH]ncc5c4)n3)cc2[nH]1` [TDI01178, 6-(4-((1H-indazol-5-yl)amino)pyrimidin-2-yl)-N-(pyridazin-4-ylmethyl)-1H-indole-2-carboxamide], the IC50 was found to be 168 nM.

Consider `O=C(Nc1ccnnc1Cl)c1cc2ccc(-c3nccc(Nc4ccc5[nH]ncc5c4)n3)cc2[nH]1` [TDI01180, 6-(4-((1H-indazol-5-yl)amino)pyrimidin-2-yl)-N-(3-chloro-pyridazin-4-yl)-1H-indole-2-carboxamide], for which the IC50 turned out to be 37 nM.

In the case of `O=C(Nc1cnncc1Cl)c1cc2ccc(-c3nccc(Nc4ccc5[nH]ncc5c4)n3)cc2[nH]1` [TDI01181, 6-(4-((1H-indazol-5-yl)amino)pyrimidin-2-yl)-N-(5-chloro-pyridazin-4-yl)-1H-indole-2-carboxamide], the half-inhibitory concentration (IC50) was determined as 92 nM.

In the case of `O=C(Nc1ccnnc1)c1cc2cc(-c3nccc(Nc4ccc5[nH]ncc5c4)n3)ccc2[nH]1` [TDI01188, 5-(4-((1H-indazol-5-yl)amino)pyrimidin-2-yl)-N-(pyridazin-4-yl)-1H-indole-2-carboxamide], half-maximal inhibition (IC50) required 123 nM.

For the compound `O=C(Nc1ccnnc1)c1c[nH]c2ccc(-c3nccc(Nc4ccc5[nH]ncc5c4)n3)cc12` [TDI01191, 5-(4-((1H-indazol-5-yl)amino)pyrimidin-2-yl)-N-(pyridazin-4-yl)-1H-indole-3-carboxamide], the half-inhibitory concentration (IC50) was determined as 225 nM.

Consider `Cn1c(C(=O)Nc2ccnnc2)cc2ccc(-c3nccc(Nc4ccc5[nH]ncc5c4)n3)cc21` [TDI01201, 6-(4-((1H-indazol-5-yl)amino)pyrimidin-2-yl)-1-methyl-N-(pyridazin-4-yl)-1H-indole-2-carboxamide], for which 48 nM corresponded to half-maximal inhibition (IC50).

Take `O=C(Nc1ccnnc1)c1cc2ccc(-c3ncc(F)c(Nc4ccc5[nH]ncc5c4)n3)cc2[nH]1` [TDI01213, 6-(4-((1H-indazol-5-yl)amino)-5-fluoro-pyrimidin-2-yl)-N-(pyridazin-4-yl)-1H-indole-2-carboxamide]: half-maximal inhibition (IC50) was put at 255 nM. This IC50 is about 5.3-fold higher than that of the compound before.

`Cc1nc(-c2ccc3cc(C(=O)Nc4ccnnc4)[nH]c3c2)nc(Nc2ccc3[nH]ncc3c2)c1C` [TDI01232, 6-(4-((1H-indazol-5-yl)amino)-5,6-dimethylpyrimidin-2-yl)-N-(pyridazin-4-yl)-1H-indole-2-carboxamide]: the IC50 came out at 295 nM.

For the compound `O=C(Nc1ccnnc1)c1ccc2ccc(-c3nccc(Nc4ccc5[nH]ncc5c4)n3)cc2n1` [TDI01236, 7-(4-((1H-indazol-5-yl)amino)pyrimidin-2-yl)-N-(pyridazin-4-yl)quinoline-2-carboxamide], the IC50 was found to be 135 nM. This IC50 is about 2.2-fold lower than that of the compound before.

Turning to `O=C(Nc1ccnnc1)N1Cc2ccc(-c3nccc(Nc4ccc5[nH]ncc5c4)n3)cc2C1` [TDI01237, 5-(4-((1H-indazol-5-yl)amino)pyrimidin-2-yl)-N-(pyridazin-4-yl)isoindoline-2-carboxamide], the IC50 was determined as 171 nM.

As for `Cc1cnc(-c2ccc3cc(C(=O)Nc4ccnnc4)[nH]c3c2)nc1Nc1ccc2[nH]ncc2c1` [TDI01250, 6-(4-((1H-indazol-5-yl)amino)-5-methyl-pyrimidin-2-yl)-N-(pyridazin-4-yl)-1H-indole-2-carboxamide], inhibition was half-maximal at 208 nM (IC50).

For `Cc1cc(Nc2ccc3[nH]ncc3c2)nc(-c2ccc3cc(C(=O)Nc4ccnnc4)[nH]c3c2)n1` [TDI01251, 6-(4-((1H-indazol-5-yl)amino)-6-methyl-pyrimidin-2-yl)-N-(pyridazin-4-yl)-1H-indole-2-carboxamide], the half-maximal inhibitory concentration (IC50) turned out to be 101 nM.

In the case of `Cc1c(Nc2ccnc(-c3ccc4cc(C(=O)Nc5ccnnc5)[nH]c4c3)n2)ccc2[nH]ncc12` [TDI01276, 6-(4-((4-methyl-1H-indazol-5-yl)amino)pyrimidin-2-yl)-N-(pyridazin-4-yl)-1H-indole-2-carboxamide], the 50% inhibitory concentration (IC50) was 113 nM.

`CN(C(=O)c1cc2ccc(-c3nccc(Nc4ccc5[nH]ncc5c4)n3)cc2[nH]1)c1ccnnc1` [TDI01347, 6-(4-((1H-indazol-5-yl)amino)pyrimidin-2-yl)-N-methyl-N-(pyridazin-4-yl)-1H-indole-2-carboxamide] registered a concentration for half-maximal inhibition (IC50) of 356 nM.
